Results published in patent US20210045385A1, “PYRIDAZINONE-SUBSTITUTED KETOXIMES AS HERBICIDES” (FMC Corporation, priority 2018, published 2021).

Columns and labels:
Assay type in all cases: in vivo
[1] = system: ragweed (common ragweed, Ambrosia artemisiifolia); test: Test C postemergence, visual plant response rating
Procedure, shortened: (§1)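 Seeds sown in a loam–sand blend got a directed preemergence soil spray; postemergence plants (2–10 cm, one- to two-leaf stage) were sprayed with compound in a non-phytotoxic solvent plus surfactant. Injury was scored visually against untreated controls after about 10 d in a greenhouse on a 0–100 scale (100 = complete control).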

[2] = system: galium (catchweed bedstraw, Galium aparine); test: Test C postemergence, visual plant response rating
Procedure, shortened: as §1

[3] = system: pigweed (Amaranthus retroflexus); test: Test C postemergence, visual plant response rating
Procedure, shortened: as §1

[4] = system: barnyardgrass (Echinochloa crus-galli); test: Test C postemergence, visual plant response rating
Procedure, shortened: as §1

[5] = system: kochia (Bassia scoparia); test: Test C postemergence, visual plant response rating
Procedure, shortened: as §1

[6] = system: blackgrass (Alopecurus myosuroides); test: Test C postemergence, visual plant response rating
Procedure, shortened: as §1

[7] = system: foxtail, giant (giant foxtail, Setaria faberi); test: Test C postemergence, visual plant response rating
Procedure, shortened: as §1

[8] = system: wheat (Triticum aestivum); test: Test C postemergence, visual plant response rating
Procedure, shortened: as §1

[9] = system: corn (Zea mays); test: Test C postemergence, visual plant response rating
Procedure, shortened: as §1

[10] = system: Italian ryegrass (Lolium mutiflorum); test: Test C postemergence, visual plant response rating
Procedure, shortened: as §1

[11] = system: ragweed (common ragweed, Ambrosia artemisiifolia); test: Test C preemergence, visual plant response rating; details: Test C, 0 is no effect, 100 is complete control
Procedure, shortened: as §1

[12] = system: pigweed (Amaranthus retroflexus); test: Test C preemergence, visual plant response rating; details: Test C, 0 is no effect, 100 is complete control
Procedure, shortened: as §1

[13] = system: barnyardgrass (Echinochloa crus-galli); test: Test C preemergence, visual plant response rating; details: Test C, 0 is no effect, 100 is complete control
Procedure, shortened: as §1

[14] = system: kochia (Bassia scoparia); test: Test C preemergence, visual plant response rating; details: Test C, 0 is no effect, 100 is complete control
Procedure, shortened: as §1

[15] = system: foxtail, giant (giant foxtail, Setaria faberi); test: Test C preemergence, visual plant response rating; details: Test C, 0 is no effect, 100 is complete control
Procedure, shortened: as §1

[16] = system: Italian ryegrass (Lolium mutiflorum); test: Test C preemergence, visual plant response rating; details: Test C, 0 is no effect, 100 is complete control
Procedure, shortened: as §1

[17] = system: duck salad (Heteranthera limosa); test: Test D flooded paddy test, visual plant response rating; details: 250 g ai/ha, scale 0 to 100 (0 no effect, 100 complete control), 13 to 15 d
Procedure, shortened: (§2)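 Greenhouse paddy assay scored on a 0–100 visual scale after 13 to 15 d, where 100 means complete control and a dash marks no result; dosing was into 3 cm floodwater over 2-leaf plants.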

[18] = system: barnyardgrass (Echinochloa crus-galli); test: as above; details: 250 g ai/ha, scale 0 to 100 (0 no effect, 100 complete control), 13 to 15 d
Procedure, shortened: as §2

[19] = system: sedge umbrella (small-flower umbrella sedge, Cyperus difformis); test: as above; details: 250 g ai/ha, scale 0 to 100 (0 no effect, 100 complete control), 13 to 15 d
Procedure, shortened: as §2

[20] = system: rice (Oryza sativa); test: as above; details: 250 g ai/ha, scale 0 to 100 (0 no effect, 100 complete control), 13 to 15 d
Procedure, shortened: as §2

[21] = Test C, postemergence, 125 g ai/ha

Structure (SMILES) | Ragweed plant response rating (0 to 100 scale) ([1]; Postemergence, 31 g ai/ha) | Ragweed plant response rating (0 to 100 scale) [1, 21] | Galium plant response rating (0 to 100 scale) ([2]; Postemergence, 31 g ai/ha) | Galium plant response rating (0 to 100 scale) [2, 21] | Pigweed plant response rating (0 to 100 scale) ([3]; Postemergence, 31 g ai/ha) | Pigweed plant response rating (0 to 100 scale) [3, 21] | Barnyardgrass plant response rating (0 to 100 scale) ([4]; Postemergence, 31 g ai/ha) | Barnyardgrass plant response rating (0 to 100 scale) [4, 21] | Kochia plant response rating (0 to 100 scale) ([5]; Postemergence, 31 g ai/ha) | Kochia plant response rating (0 to 100 scale) [5, 21] | Blackgrass plant response rating (0 to 100 scale) ([6]; Postemergence, 31 g ai/ha) | Blackgrass plant response rating (0 to 100 scale) [6, 21] | Foxtail, Giant plant response rating (0 to 100 scale) ([7]; Postemergence, 31 g ai/ha) | Foxtail, Giant plant response rating (0 to 100 scale) [7, 21] | Wheat plant response rating (0 to 100 scale) ([8]; Postemergence, 31 g ai/ha) | Wheat plant response rating (0 to 100 scale) [8, 21] | Corn plant response rating (0 to 100 scale) ([9]; Postemergence, 31 g ai/ha) | Corn plant response rating (0 to 100 scale) [9, 21] | Ryegrass, Italian plant response rating (0 to 100 scale) ([10]; Postemergence, 31 g ai/ha) | Ryegrass, Italian plant response rating (0 to 100 scale) [10, 21] | also measured
C#CCON=C(c1cccc(OCC(F)(F)F)c1)c1c(O)c(C)nn(C)c1=O [Compound 197] | 0 | 0 | 0 | 30 | 10 | 30 | 0 | 10 | 0 | 0 | 0 | 30 | 0 | 20 | 0 | 0 | 0 | 0 | 0 | 20 | Ragweed plant response rating (0 to 100 scale) ([11]; 31 g ai/ha): 0; Ragweed plant response rating (0 to 100 scale) ([11]; 125 g ai/ha): 0; Pigweed plant response rating (0 to 100 scale) ([12]; 31 g ai/ha): 0; Pigweed plant response rating (0 to 100 scale) ([12]; 125 g ai/ha): 20; Barnyardgrass plant response rating (0 to 100 scale) ([13]; 31 g ai/ha): 0; Barnyardgrass plant response rating (0 to 100 scale) ([13]; 125 g ai/ha): 0; Kochia plant response rating (0 to 100 scale) ([14]; 31 g ai/ha): 0; Kochia plant response rating (0 to 100 scale) ([14]; 125 g ai/ha): 0; Foxtail, Giant plant response rating (0 to 100 scale) ([15]; 31 g ai/ha): 0; Foxtail, Giant plant response rating (0 to 100 scale) ([15]; 125 g ai/ha): 10; Ryegrass, Italian plant response rating (0 to 100 scale) ([16]; 31 g ai/ha): 0; Ryegrass, Italian plant response rating (0 to 100 scale) ([16]; 125 g ai/ha): 20; Plant response rating, Ducksalad (Flood) [17]: 0; Plant response rating, Barnyardgrass (Flood) [18]: 0; Plant response rating, Sedge, Umbrella (Flood) [19]: 0; Plant response rating, Rice (Flood) [20]: 0
CON=C(c1cccc(OCC(F)(F)F)c1)c1c(O)c(C)nn(C)c1=O [Compound 198] | 0 | 0 | 0 | 20 | 0 | 10 | 20 | 80 | 0 | 0 | 0 | 40 | 20 | 70 | 0 | 0 | 0 | 20 | 0 | 60 | Ragweed plant response rating (0 to 100 scale) ([11]; 31 g ai/ha): 0; Ragweed plant response rating (0 to 100 scale) ([11]; 125 g ai/ha): 0; Pigweed plant response rating (0 to 100 scale) ([12]; 31 g ai/ha): 0; Pigweed plant response rating (0 to 100 scale) ([12]; 125 g ai/ha): 0; Barnyardgrass plant response rating (0 to 100 scale) ([13]; 31 g ai/ha): 0; Barnyardgrass plant response rating (0 to 100 scale) ([13]; 125 g ai/ha): 40; Kochia plant response rating (0 to 100 scale) ([14]; 31 g ai/ha): 0; Kochia plant response rating (0 to 100 scale) ([14]; 125 g ai/ha): 0; Foxtail, Giant plant response rating (0 to 100 scale) ([15]; 31 g ai/ha): 0; Foxtail, Giant plant response rating (0 to 100 scale) ([15]; 125 g ai/ha): 70; Ryegrass, Italian plant response rating (0 to 100 scale) ([16]; 31 g ai/ha): 0; Ryegrass, Italian plant response rating (0 to 100 scale) ([16]; 125 g ai/ha): 70; Plant response rating, Ducksalad (Flood) [17]: 0; Plant response rating, Barnyardgrass (Flood) [18]: 0; Plant response rating, Sedge, Umbrella (Flood) [19]: 0; Plant response rating, Rice (Flood) [20]: 0
C#CCON=C(c1cccc(OCC)c1)c1c(O)c(C)nn(C)c1=O [Compound 199] | 0 | 0 | 20 | 30 | 0 | 0 | 0 | 20 | 0 | 0 | 0 | 20 | 0 | 20 | 0 | 0 | 0 | 0 | 0 | 0 | Ragweed plant response rating (0 to 100 scale) ([11]; 31 g ai/ha): 0; Ragweed plant response rating (0 to 100 scale) ([11]; 125 g ai/ha): 0; Pigweed plant response rating (0 to 100 scale) ([12]; 31 g ai/ha): 0; Pigweed plant response rating (0 to 100 scale) ([12]; 125 g ai/ha): 10; Barnyardgrass plant response rating (0 to 100 scale) ([13]; 31 g ai/ha): 0; Barnyardgrass plant response rating (0 to 100 scale) ([13]; 125 g ai/ha): 0; Kochia plant response rating (0 to 100 scale) ([14]; 31 g ai/ha): 0; Kochia plant response rating (0 to 100 scale) ([14]; 125 g ai/ha): 0; Foxtail, Giant plant response rating (0 to 100 scale) ([15]; 31 g ai/ha): 0; Foxtail, Giant plant response rating (0 to 100 scale) ([15]; 125 g ai/ha): 10; Ryegrass, Italian plant response rating (0 to 100 scale) ([16]; 31 g ai/ha): 0; Ryegrass, Italian plant response rating (0 to 100 scale) ([16]; 125 g ai/ha): 20; Plant response rating, Ducksalad (Flood) [17]: 0; Plant response rating, Barnyardgrass (Flood) [18]: 0; Plant response rating, Sedge, Umbrella (Flood) [19]: 0; Plant response rating, Rice (Flood) [20]: 0
CCOc1cccc(C(=NOC)c2c(O)c(C)nn(C)c2=O)c1 [Compound 200] | 0 | 0 | 30 | 40 | 0 | 0 | 20 | 30 | 0 | 0 | 0 | 0 | 10 | 20 | 0 | 0 | 0 | 0 | 0 | 0 | Ragweed plant response rating (0 to 100 scale) ([11]; 31 g ai/ha): 0; Ragweed plant response rating (0 to 100 scale) ([11]; 125 g ai/ha): 0; Pigweed plant response rating (0 to 100 scale) ([12]; 31 g ai/ha): 0; Pigweed plant response rating (0 to 100 scale) ([12]; 125 g ai/ha): 0; Barnyardgrass plant response rating (0 to 100 scale) ([13]; 31 g ai/ha): 0; Barnyardgrass plant response rating (0 to 100 scale) ([13]; 125 g ai/ha): 0; Kochia plant response rating (0 to 100 scale) ([14]; 31 g ai/ha): 0; Kochia plant response rating (0 to 100 scale) ([14]; 125 g ai/ha): 0; Foxtail, Giant plant response rating (0 to 100 scale) ([15]; 31 g ai/ha): 0; Foxtail, Giant plant response rating (0 to 100 scale) ([15]; 125 g ai/ha): 10; Ryegrass, Italian plant response rating (0 to 100 scale) ([16]; 31 g ai/ha): 0; Ryegrass, Italian plant response rating (0 to 100 scale) ([16]; 125 g ai/ha): 0; Plant response rating, Ducksalad (Flood) [17]: 0; Plant response rating, Barnyardgrass (Flood) [18]: 0; Plant response rating, Sedge, Umbrella (Flood) [19]: 0; Plant response rating, Rice (Flood) [20]: 0
